# According to PMC12871931, “The importin‐alpha superfamily engages in ethylene signaling by shuttling [sequence] INSENSITIVE 2 from the endoplasmic reticulum to the nucleus” (The Febs Journal, 2025):
# How the values were obtained:
# [1] = tested on: ein2‐1 loss‐of‐function mutant seedlings; assay: Triple response assay, ethylene‐insensitive mutant; type: in vivo, Arabidopsis thaliana; settings: ein2‐1, dark‐grown, ACC in agar vs w/o ACC
# From the text: In the presence of ethylene, dark‐grown seedlings display the characteristic phenotypic responses known as triple response. We hypothesized that nucleocytoplasmic transport and nuclear import of the EIN2 cytosolic part (CEND), which bridges ethylene signal transduction from the ER membrane to the nucleus, are mediated by the IMPα‐IMPβ transport machinery. This hypothesis is supported by the previously identified NLS motif in the EIN2 C terminus. To investigate whether any of the IMPα isoforms are implicated in ethylene signaling, A. thaliana Col‐0 (wild‐type; positive control), single loss‐of‐function mutants of the IMPα isoforms (impα1‐impα9) obtained from the Nottingham Arabidopsis Stock Centre (NASC), and ethylene‐insensitive mutant ein2‐1 (negative control) were grown in the dark in the presence of the ethylene precursor 1‐aminocyclopropane‐1‐carboxylate (ACC) and subsequently analyzed for their triple response. […] The findings on the single impα mutants indicate that nucleocytoplasmic transport and nuclear import of EIN2 CEND cannot be attributed to a single IMPα isoform, possibly because of functional redundancy among the IMPα isoforms.
# (§1) Around 10 mg of seeds was filled into a 2‐mL reaction tube and put into a desiccator with the lid opened. Additionally, a beaker with 100 mL 37% perchloric acid was put into the desiccator. […]
# [2] = tested on: triple impα loss‐of‐function mutant seedlings; assay: Triple response assay, triple impα mutants; type: in vivo, Arabidopsis thaliana; settings: 0.1 μM ACC, at least 20 seedlings per condition
# Protocol: To gain further insights into the role of the IMPα superfamily for ethylene signaling, we studied multiple higher order IMPα loss‐of‐function mutants (Fig. 2). […] To check for potential differences in ethylene sensitivity, we supplemented the experiments from Fig. 2B with 0.1 and 1 μM ACC (Fig. 2C). […] These findings indicate that the mutation of three IMPα isoforms leads to diminished sensitivity in ethylene perception, supporting the pivotal role of the IMPα superfamily in ethylene signaling. However, no differences in ethylene sensing were observed among the various triple mutants, further reinforcing the hypothesis of IMPα redundancy in EIN2 transport. The deletion of an excessive number of IMPα isoforms is likely to have detrimental effects on regular plant growth and development, which has already been observed in the triple mutants (impα‐1;impα‐2;impα‐3). Due to the pivotal role of the IMPα‐IMPβ machinery in the nuclear transport of a large number of cargo proteins, we adopted an alternative strategy to investigate the role of IMPα proteins in plant ethylene signal transduction by testing their physical interaction with the ethylene key regulator EIN2.
# as §1
# [3] = tested on: Col‐0 (wild‐type) seedlings; assay: Triple response assay, wild‐type; type: in vivo, Arabidopsis thaliana; settings: dark‐grown, vs w/o ACC
# Protocol: Around 10 mg of seeds was filled into a 2‐mL reaction tube and put into a desiccator with the lid opened. Additionally, a beaker with 100 mL 37% perchloric acid was put into the desiccator. 3 mL of 37% hydrochloric acid was pipetted into the beaker to start the reaction, and the lid of the desiccator was closed immediately. The seeds were incubated for 1 h. After the incubation time, the lid of the desiccator was opened slightly, while the tubes were incubated for 20 more minutes to wait for the gas to evaporate. 1 mL of sterile water was added to the reaction tubes, and the seeds were stratified by storage at 4 °C for 3 days before planting (otherwise they can be planted directly after this procedure). Before starting to plant the seeds, any material (e.g., pots and tubs) was sterilized with 70% ethanol. A mixture of soil, vermiculite, and sand (ratio 8:1:1) was prepared, and water was added in the right proportion to make the soil mix soggy but not mushy. The soil mix was sterilized by heating it in the microwave at 800 W for about 10 min. Pots were filled with the sterilized soil mix afterwards. Around 100 μL of 1% agarose in tap water was added to the reaction tubes containing the sterilized seedlings for better pipetting precision, and the seeds were planted into the soil mix. The growth of A. thaliana was performed at 22 °C, 60% humidity, and 100–120 μEinstein light intensity. The plants were watered only from the bottom every 2–3 days. After 5 weeks, the plants were big enough to grow in their own pots instead of several plants being grown crowded in one pot.
# The triple response media for the agar plates was prepared by mixing 0.43% (w/v) of Murashige and Skoog (MS) salts and 1% (w/v) sucrose. The pH is adjusted to 6.0 before adding 0.7% (w/v) plant agar to the media and autoclaving it at 121 °C for 30 min. […] The seedlings were documented, and the length of the hypocotyl was analyzed using a binocular microscope and the software Motion 3.0, respectively. […]
# EIN2C^479–1294 = assay: In planta FLIM‐FRET, EIN2C^479–1294‐CER donor, IMPα‐YFP acceptors; type: cell-based, Arabidopsis thaliana; settings: mean, EIN2C^479–1294‐CER donor / IMPα‐YFP acceptor, N. benthamiana epidermal leaf cells
# From the text: To further investigate the interaction between members of the IMPα superfamily and EIN2 in planta, we used in vivo fluorescence lifetime microscopy and Förster's resonance energy transfer (FLIM‐FRET). Accordingly, the C‐terminal part of EIN2 (EIN2C^479–1294) was fused to the fluorescent protein Cerulean (CER), serving as a donor, and the IMPα isoforms (IMPα1‐7) were fused to YELLOW FL[…] (YFP), serving as acceptors.
# A modified version of a previously described procedure was used for the transient transformation of N. benthamiana. An overnight culture of agrobacteria was inoculated in DYT and incubated at 28°C one day before infiltration. […] For co‐infiltration, bacteria solutions were mixed in equal quantities, and Agrobacterium strain GV3101:p19 expressing the p19 silencing inhibitor was added to each mix. […]
# Fluorescence lifetime imaging was performed using a protocol described previously. Fluorescence lifetime was measured at a Zeiss LSM 780 confocal microscope (40× water immersion objective, Zeiss C‐PlanApo, NA 1.2). […] Photons were detected in both donor and acceptor channels simultaneously with Tau‐SPADs (PicoQuant, Berlin, Germany). […] Internal response functions for each laser were determined by measuring the fluorescence decay of quenched Atto425 in saturated KI, using the same hardware settings as for the FRET pair of interest. […]
# IMPα7_ΔIBB = target: T1, IMPα7_ΔIBB (Arabidopsis thaliana, UniProt Q9M9X7); assay: biochemical; type: binding
# T1 construct: hexa-His (TEV site between protein and tag) (C); made in house; host or cells: E. coli BL21gold
# T1 sequence (Q9M9X7 57-528, stated change not applied): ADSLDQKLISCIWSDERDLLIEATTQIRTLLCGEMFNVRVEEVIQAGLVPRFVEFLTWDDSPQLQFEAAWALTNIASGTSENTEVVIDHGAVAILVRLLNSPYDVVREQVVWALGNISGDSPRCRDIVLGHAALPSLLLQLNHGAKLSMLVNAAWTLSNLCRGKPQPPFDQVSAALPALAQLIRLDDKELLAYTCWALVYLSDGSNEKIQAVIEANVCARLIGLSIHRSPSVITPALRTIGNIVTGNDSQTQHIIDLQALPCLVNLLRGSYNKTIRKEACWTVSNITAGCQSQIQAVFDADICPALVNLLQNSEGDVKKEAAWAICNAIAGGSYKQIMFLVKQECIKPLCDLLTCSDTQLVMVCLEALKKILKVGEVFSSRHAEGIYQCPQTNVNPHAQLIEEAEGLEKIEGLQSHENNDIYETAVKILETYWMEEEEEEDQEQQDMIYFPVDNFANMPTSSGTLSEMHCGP
# From the text: Genes encoding several isoforms of the IMPα superfamily were either isolated from Arabidopsis thaliana (IMPα1, ‐2, ‐3, ‐4, ‐8) or synthetically produced by GenScript (IMPα5, ‐6, ‐7, ‐9) and cloned into the pETEV21a vector (modified version of the pET21a vector with an additional TEV cleavage site between the GOI and the His‐tag), which contains a C‐terminal hexa‐His‐tag. Only IMPα5 was additionally cloned into the pETEV16b vector (modified version of the pET16b vector with an additional TEV cleavage site between the GOI and the His‐tag), which contains an N‐terminal deca‐His‐tag (see Table S2 for primer list). The AtEIN2C^1215–1281 gene was cloned into the pETEV16b vector and additionally contained a GB1‐domain at the N terminus to enhance solubility. Most of the proteins were expressed in the E. coli BL21pRARE strain, while IMPα7, IMPα8, and ΔIBB_IMPα1 (lack of the IBB domain) were expressed using the E. coli BL21gold strain. The bacterial cultures were adjusted to an initial OD600 of 0.1 and grown in 2YT media at 37 °C until an OD600 between 0.6 and 0.8 was reached. Subsequently, the protein expression was induced with 0.5 mM IPTG. After two hours, the cells were harvested via centrifugation at 10,000 g for 10 min. IMPα5, IMPα6, IMPα7, IMPα8, ΔIBB_IMPα1, and GB1_AtEIN2C^1215–1281 were expressed at 16 °C overnight with the addition of 2% (v/v) ethanol. […]
compound,measurement,setting,value
"NC1(C(=O)O)CC1 [ACC, 1‐aminocyclopropane‐1‐carboxylic acid]",decrease in hypocotyl length,[1],10%
same,reduction in hypocotyl length (maximum among triple mutants),[2],≤ 7.5%
same,reduction in hypocotyl length,"[3]; Col‐0, 0.1 μM ACC",21%
same,reduction in hypocotyl length,"[3]; Col‐0, 1 μM ACC",55.5%
same,reduction in hypocotyl length,"[3]; Col‐0, 10 μM ACC",56.5%
"IMPα4: A. thaliana IMPα4 fused to YFP, FRET acceptor",FRET efficiency,EIN2C^479–1294,4.6%
CC(C)C[C@H](NC(=O)[C@H](CCCNC(=N)N)NC(=O)[C@H](CCCNC(=N)N)NC(=O)[C@H](CCCCN)NC(=O)[C@H](Cc1ccc(O)cc1)NC(=O)[C@H](CCCNC(=N)N)NC(=O)[C@H](CCCCN)NC(=O)[C@H](CC(C)C)NC(=O)c1ccc2c(c1)C(=O)OC21c2ccc(N(C)C)cc2Oc2cc(N(C)C)ccc21)C(=O)O [TAMRA‐NOP‐1],Kd,IMPα7_ΔIBB,3 ± 0.3 µM
